Patent publication US20260109732A1, “LIPID AMINES” (ModernaTX, Inc., priority 2021, published 2026)
Counter-ions that a name gives are not always drawn.

Key:
[1] = test system: HeLa cells; experiment: Luciferase Protein Expression Assay in HeLa Cells; assay type: cell-based, Human; details: LNPs encapsulating Luciferase mRNA, 25 ng per well, N=4 wells; 5 h serum-free then 24 h; ONE-Glo
Outline: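 HeLa cells received LNPs carrying luciferase mRNA (25 ng per well) or PBS in serum-free MEM for 5 h, then complete MEM for a further 24 h. Luciferase then read by ONE-Glo luminescence after lysis and reported as average RLU of 4 replicate wells.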

[2] = test system: HeLa cells; experiment: CFTR Protein Expression Assay in HeLa Cells; assay type: cell-based, Human; details: LNPs encapsulating CFTR mRNA, N=4 wells; 5 h serum-free then 24 h; immunofluorescence vs PBS control
Outline: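 HeLa cells dosed with CFTR mRNA LNPs (70 mM NaCl final buffer matrix) in serum-free MEM for 5 h, then complete MEM for 24 h. Fixed cells immunostained with anti-CFTR monoclonal and Alexa 488 secondary, imaged confocally; CFTR intensity per cell expressed as fold-change versus PBS buffer control, N=4 wells.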

[3] = Diameter and PDI from DLS measurements of mRNA nanoparticles with lipid amines; assay type: physicochemical
Outline: (§1)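 Ionizable lipid nanoparticles (IL1:DSPC:cholesterol:PEG-DMG-2K) formed by vortex mixing at pH 4, loaded with luciferase or CFTR mRNA at N:P 4.93, neutralized with TRIS pH 8.12, then modified with lipid amine SA50 at pH 7.5. Particle diameter and PDI read by DLS; mRNA encapsulation by Ribogreen assay.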

[4] = Encapsulation of mRNA nanoparticles with lipid amines using Ribogreen assay; assay type: physicochemical
Outline: as §1

[5] = CFTR mRNA nanoparticle with lipid amine
[6] = Luciferase mRNA nanoparticle modified with lipid amine

Structure (SMILES)	Average Relative Light Units ± Standard Deviation [1] [Relative Light Units]	Average fold-change in CFTR signal intensity per cell compared to buffer control ± standard deviation [2] [fold-change]	Diameter (nm) [3, 5] [nm]	PDI [3, 5]	Diameter (nm) [3, 6] [nm]	PDI [3, 6]	% Encapsulation (Ribogreen) [4, 5] [%]	% Encapsulation (Ribogreen) [4, 6] [%]
CC(C)CCC[C@@H](C)[C@H]1CC[C@H]2[C@@H]3CC=C4C[C@@H](OC(=O)N(CCCN)CCCCOCCCN)CC[C@]4(C)[C@H]3CC[C@]12C [SA61, (3S,8S,9S,10R,13R,14S,17R)-10,13-Dimethyl-17-((R)-6-methylheptan-2-yl)-2,3,4,7,8,9,10,11,12,13,14,15,16,17-tetradecahydro-1H-cyclopenta[a]phenanthren-3-yl (4-(3-aminopropoxy)butyl)(3-aminopropyl)carbamate dihydrochloride]	14343.1 ± 5298.1	7.2 ± 0.4	71.3	0.11	77	0.16	99.4	99.1
CC[C@H](CC[C@@H](C)[C@H]1CC[C@H]2[C@@H]3CC=C4C[C@@H](OC(=O)N(CCCC(C)(C)N)CCC(C)(C)N)CC[C@]4(C)[C@H]3CC[C@]12C)C(C)C [SA149, (3S,8S,9S,10R,13R,14S,17R)-17-((2R,5R)-5-ethyl-6-methylheptan-2-yl)-10,13-dimethyl-2,3,4,7,8,9,10,11,12,13,14,15,16,17-tetradecahydro-1H-cyclopenta[a]phenanthren-3-yl (3-amino-3-methylbutyl)(4-amino-4-methylpentyl)carbamate dihydrochloride]	31035.2 ± 6333.7	15.8 ± 1.4	72.3	0.14	75	0.15	99.9	99.5
CC[C@H](CC[C@@H](C)[C@H]1CC[C@H]2[C@@H]3CC=C4C[C@@H](OC(=O)CCCC(=O)N(CCCCNCCC(N)(CC)CC)CCC(N)(CC)CC)CC[C@]4(C)[C@H]3CC[C@]12C)C(C)C [SA182, (3S,8S,9S,10R,13R,14S,17R)-17-((2R,5R)-5-ethyl-6-methylheptan-2-yl)-10,13-dimethyl-2,3,4,7,8,9,10,11,12,13,14,15,16,17-tetradecahydro-1H-cyclopenta[a]phenanthren-3-yl 5-((3-amino-3-ethylpentyl)(4-((3-amino-3-ethylpentyl)amino)butyl)amino)-5-oxopentanoate trihydrochloride]	38564.9 ± 12453	13.2 ± 0.9	72	0.13	73	0.14	98.0	99.0
CC(C)CCC[C@@H](C)[C@H]1CC[C@H]2[C@@H]3CC=C4C[C@@H](OC(=O)N(CCCCCCCC(C)(C)N)CCC(C)(C)N)CC[C@]4(C)[C@H]3CC[C@]12C [SA152, (3S,8S,9S,10R,13R,14S,17R)-10,13-dimethyl-17-((R)-6-methylheptan-2-yl)-2,3,4,7,8,9,10,11,12,13,14,15,16,17-tetradecahydro-1H-cyclopenta[a]phenanthren-3-yl (3-amino-3-methylbutyl)(8-amino-8-methylnonyl)carbamate dihydrochloride]	41692.8 ± 9336.8	20.6 ± 1.6	71.6	0.14	78	0.15	98.4	98.2
